≈ marks a conversion by molar mass, not a printed value. Calls of active or inactive are those of the source. The calls are words filed in the database; no cut-off is given here. Where a SMILES comes first, the peptide text is derived from it. The star is where a group is joined. Lauroyl = CCCCCCCCCCCC(=O)*; Decanoyl = CCCCCCCCCC(=O)*; Spermine = NCCCNCCCCNCCCN*
Assays:
Staphylococcus aureus [1] = assay: Additive antibacterial activity against MDR-methicillin-resistant Staphylococcus aureus ATCC BAA-44 assessed as fractional inhibitory concentration index in presence of tetracycline by checkerboard assay; type: functional
Cell membrane [2] = assay: Disruption of bacterial cell membrane in Escherichia coli ATCC 25922 assessed as proportion of bacteria with intact cell membrane at 1X MIC incubated for 1 hr by PI staining based flow cytometric analysis (reference value: 99.3%); type: subcellular
Staphylococcus aureus [3] = assay: Synergistic antibacterial activity against MDR-methicillin-resistant Staphylococcus aureus ATCC BAA-44 assessed as chloramphenicol MIC by checkerboard assay; type: functional
Cell membrane [4] = assay: Disruption of bacterial cell membrane in Escherichia coli ATCC 25922 assessed as proportion of bacteria with damaged cell membrane at 5X MIC incubated for 1 hr by PI staining based flow cytometric analysis (reference value: 0.7%); type: subcellular
Staphylococcus aureus [5] = assay: Additive antibacterial activity against MDR-methicillin-resistant Staphylococcus aureus ATCC BAA-44 assessed as chloramphenicol MIC by checkerboard assay; type: functional
[6] = tested on: Staphylococcus epidermidis; assay: Antibacterial activity against Staphylococcus epidermidis ATCC 12228 assessed as reduction in bacterial growth measured after 18 hrs by broth microdilution method; type: functional
Staphylococcus aureus [7] = assay: Additive antibacterial activity against MDR-methicillin-resistant Staphylococcus aureus ATCC BAA-44 assessed as fractional inhibitory concentration index in presence of gentamicin by checkerboard assay; type: functional
Staphylococcus aureus [8] = assay: Additive antibacterial activity against MDR-methicillin-resistant Staphylococcus aureus ATCC BAA-44 assessed as fractional inhibitory concentration index in presence of chloramphenicol by checkerboard assay; type: functional
[9] = target: Bacterial 70S ribosome (Bacteria) (UniProt P0A7V0+P60723+P0AG67+P0A7R5+P0A7R9+P0A7S3+P0A7S9+P0AG59+P0ADZ4+P0A7T3+P0AG63+P0A7T7+P0A7U3+P0A7U7+P68679+P0A7V3+P0A7V8+P0A7W1+P02358+P02359+P0A7W7+P0A7X3+P0A7J3+P0A7J7+P0AA10+P0ADY3+P02413+P0ADY7+P0AG44+P0C018+P0A7K6+P0A7L0+P0A7L3+P0AG48+P61175+P0ADZ0+P60624+P68919+P0A7L8+P0A7M2+P0A7M6+P60422+P0AG51+P0A7N1+P0A7M9+P0A7N4+P0A7N9+P0A7P5+P0A7Q1+Q2EEQ2+P0A7Q6+P60438+P62399+P0AG55+P0A7K2); assay: Inhibition of 70S ribosome-mediated protein synthesis in Escherichia coli at 1XMIC incubated for 1 hr by renilla luciferase based luminescence assay; type: subcellular
Staphylococcus aureus [10] = assay: Additive antibacterial activity against MDR-methicillin-resistant Staphylococcus aureus ATCC BAA-44 assessed as fold change in chloramphenicol MIC by checkerboard assay; type: functional
[11] = Acute toxicity in BALB/c mouse assessed as mouse survival at 10 mg/kg, ip measured for 7 days; type: organism-based; details: in vivo, time 7 day
[12] = tested on: Staphylococcus epidermidis; assay: Antibacterial activity against methicillin-resistant Staphylococcus epidermidis ATCC 51625 assessed as reduction in bacterial growth measured after 18 hrs by broth microdilution method; type: functional
[13] = Cytotoxicity against human THP-1 cells assessed as cell viability at 100 uM by MTT assay; type: toxicity, cell-based; details: read-out: Activity
Escherichia coli [14] = assay: Antibacterial activity against Escherichia coli MRE600 assessed as reduction in bacterial growth measured after 18 hrs by broth microdilution method; type: functional
Staphylococcus aureus [15] = assay: Additive antibacterial activity against MDR-methicillin-resistant Staphylococcus aureus ATCC BAA-44 assessed as fold change in rifampicin MIC by checkerboard assay; type: functional
Escherichia coli [16] = assay: Antibacterial activity against Escherichia coli ATCC 25922 assessed as reduction in bacterial growth measured after 18 hrs in presence of 10% v/v human serum in MHB by broth microdilution method; type: functional; details: ATCC 25922, Serum
Staphylococcus aureus [17] = assay: Additive antibacterial activity against MDR-methicillin-resistant Staphylococcus aureus ATCC BAA-44 assessed as rifampicin MIC by checkerboard assay; type: functional
Cell membrane [18] = assay: Disruption of bacterial cell membrane in Escherichia coli ATCC 25922 assessed as blebbing on the surface of the bacteria at 5XMIC by SEM analysis; type: subcellular

| SMILES | fractional inhibitory concentration index (FICI) (Staphylococcus aureus [1]) | Activity (Cell membrane [2]) | MIC (Staphylococcus aureus [3]) | Activity (Cell membrane [4]) | MIC (Staphylococcus aureus [5]) | MIC [6] | fractional inhibitory concentration index (FICI) (Staphylococcus aureus [7]) | fractional inhibitory concentration index (FICI) (Staphylococcus aureus [8]) | inhibition [9] | fold change (FC) (Staphylococcus aureus [10]) | survival at 168 h [11] | MIC [12] | viability at 100 µM [13] | MIC (Escherichia coli [14]) | fold change (FC) (Staphylococcus aureus [15]) | MIC (Escherichia coli [16]) | MIC (Staphylococcus aureus [17]) | Activity (Cell membrane [18]) |
| --- | --- | --- | --- | --- | --- | --- | --- | --- | --- | --- | --- | --- | --- | --- | --- | --- | --- | --- |
| CCCCCCCCCC(=O)N1CCC[C@H]1C(=O)N[C@@H](CCCNC(=N)N)C(=O)N1CCC[C@H]1C(=O)N[C@@H](CCCNC(=N)N)C(=O)N1CCC[C@H]1C(=O)N1CCC[C@H]1C(=O)N[C@@H](CCCNC(=N)N)C(=O)NCCCNCCCCNCCCN (Decanoyl-PRPRPPR-Spermine) | 0.625 | 93.9% | 1000 µg/mL | 9.56% | 1000 µg/mL | 1.5 µM (≈ 1.82 µg/mL) | 0.745 | 2 | Active | 1 | 100% | 3.1 µM (≈ 3.76 µg/mL) | 80% | 3.1 µM (≈ 3.76 µg/mL) | 2 | 6.2 µM | 0.625 µg/mL |  |
| CCCCCCCCCCCC(=O)N1CCC[C@H]1C(=O)N[C@@H](CCCNC(=N)N)C(=O)N1CCC[C@H]1C(=O)N[C@@H](CCCNC(=N)N)C(=O)N1CCC[C@H]1C(=O)N1CCC[C@H]1C(=O)N[C@@H](CCCNC(=N)N)C(=O)NCCCNCCCCNCCCN (Lauroyl-PRPRPPR-Spermine) | 0.625 | 92.9% | 250 µg/mL | 27.3% |  | 1.5 µM (≈ 1.86 µg/mL) | 0.745 |  | Active |  | 100% | 1.5 µM (≈ 1.86 µg/mL) | 65% | 3.1 µM (≈ 3.85 µg/mL) | 2 | 3.1 µM | 0.625 µg/mL | Active |
